From PubChem BioAssay AID190 (DTP/NCI, 2004) come the findings set out here.

The experiment concerns AKR/Lw mice, AKR lymphoma ip, median survival T/C. In words: NCI In Vivo Anticancer Drug Screen. Data for tumor model Lymphoma AKR (Transplanted) (intraperitoneal) in AKR/Lw mice. To be noted: endpoint: median survival time, higher = longer survival. On the procedure: The antitumor activity of compounds was measured in mice bearing transplantable tumors. Survival or tumor size were measured and the results are expressed as the measurement made in the treated group (T) divided by the measurement made in the vehicle treated control group (C). The tumor model used in this assay is Lymphoma AKR (Transplanted) (intraperitoneal) in AKR/Lw mice

The structures appear in SMILES notation. “And” between values parts separate entries of the source, which are not always exact repeats. Equal entries are not always repeated. Toxic doses and inconclusive results are not listed.

`O=NN(CCCl)C(=O)NCCCl`: the T/C was 105 % of control (dose: 0.12 mg/kg/injection, schedule: Q01DX009 (ip), vehicle: saline); 87 % of control and 107 % of control (dose: 0.25 mg/kg/injection, schedule: Q01DX009 (ip), vehicle: saline); 90 % of control and 97 % of control (dose: 0.25 mg/kg/injection, schedule: Q04DX003 (ip), vehicle: saline); 96 % of control (dose: 0.5 mg/kg/injection, schedule: Q04DX004 (ip), vehicle: saline); 108 % of control and 112 % of control (dose: 1.0 mg/kg/injection, schedule: Q04DX004 (ip), vehicle: saline); 107 % of control (dose: 1.5 mg/kg/injection, schedule: Q04DX003 (ip), vehicle: saline). Moreover, the T/C is, setting by setting: (dose: 1.5 mg/kg/injection, schedule: Q07DX003 (ip), vehicle: saline) 87 % of control and 118 % of control; (dose: 2.5 mg/kg/injection, schedule: Q04DX003 (ip), vehicle: saline) 93 % of control; (dose: 3.0 mg/kg/injection, schedule: Q01DX001 (ip), vehicle: saline) 100 % of control and 114 % of control; (dose: 3.0 mg/kg/injection, schedule: Q01DX009 (ip), vehicle: saline) 87 % of control; (dose: 3.0 mg/kg/injection, schedule: Q04DX003 (ip), vehicle: saline) 86 % of control; (dose: 3.0 mg/kg/injection, schedule: Q07DX003 (ip), vehicle: saline) 109 % of control and 121 % of control. Besides, the T/C is 98 % of control (dose: 3.13 mg/kg/injection, schedule: Q04DX003 (ip), vehicle: water); 117 % of control (dose: 3.75 mg/kg/injection, schedule: Q01DX001 (ip), vehicle: saline); 153 % of control (dose: 4.0 mg/kg/injection, schedule: Q04DX004 (ip), vehicle: saline); 93 % of control and 100 % of control and 103 % of control (dose: 5.0 mg/kg/injection, schedule: Q01DX001 (ip), vehicle: saline); 333 % of control (dose: 5.0 mg/kg/injection, schedule: Q01DX009 (ip), vehicle: saline); 103 % of control (dose: 5.0 mg/kg/injection, schedule: Q04DX003 (ip), vehicle: saline). In addition, the T/C (dose: 5.0 mg/kg/injection, schedule: Q10DX004 (ip), vehicle: saline) was 103 % of control; the T/C (dose: 6.0 mg/kg/injection, schedule: Q04DX003 (ip), vehicle: saline) was 97 % of control; the T/C (dose: 6.0 mg/kg/injection, schedule: Q07DX003 (ip), vehicle: saline) is 100 % of control and 118 % of control; the T/C (dose: 6.2 mg/kg/injection, schedule: Q01DX001 (ip), vehicle: saline) was 106 % of control; the T/C (dose: 6.25 mg/kg/injection, schedule: Q04DX003 (ip), vehicle: water) is 124 % of control; the T/C (dose: 7.5 mg/kg/injection, schedule: Q01DX001 (ip), vehicle: saline) is 118 % of control. In addition, the T/C is, setting by setting: (dose: 8.0 mg/kg/injection, schedule: Q04DX004 (ip), vehicle: saline) 171 % of control; (dose: 10.0 mg/kg/injection, schedule: Q01DX009 (ip), vehicle: saline) 97 % of control; (dose: 10.0 mg/kg/injection, schedule: Q04DX003 (ip), vehicle: saline) 106 % of control; (dose: 10.0 mg/kg/injection, schedule: Q10DX004 (ip), vehicle: saline) 111 % of control; (dose: 10.0 mg/kg/injection, schedule: Q14DX003 (ip), vehicle: saline) 123 % of control; (dose: 12.5 mg/kg/injection, schedule: Q01DX001 (ip), vehicle: saline) 118 % of control. The T/C (dose: 12.5 mg/kg/injection, schedule: Q04DX003 (ip), vehicle: water) is 88 % of control; the T/C (dose: 15.0 mg/kg/injection, schedule: Q10DX004 (ip), vehicle: saline) is 113 % of control; the T/C (dose: 15.0 mg/kg/injection, schedule: Q14DX003 (ip), vehicle: saline) was 98 % of control; the T/C (dose: 16.0 mg/kg/injection, schedule: Q01DX009 (ip), vehicle: saline) was 97 % of control; the T/C (dose: 16.0 mg/kg/injection, schedule: Q04DX004 (ip), vehicle: saline) was 168 % of control; the T/C (dose: 20.0 mg/kg/injection, schedule: Q01DX009 (ip), vehicle: saline) is 97 % of control. For the same molecule, the T/C runs as follows: (dose: 20.0 mg/kg/injection, schedule: Q10DX004 (ip), vehicle: saline) 101 % of control; (dose: 20.0 mg/kg/injection, schedule: Q14DX003 (ip), vehicle: saline) 115 % of control; (dose: 24.0 mg/kg/injection, schedule: Q01DX001 (ip), vehicle: saline) 86 % of control; (dose: 25.0 mg/kg/injection, schedule: Q04DX003 (ip), vehicle: water) 108 % of control; (dose: 32.0 mg/kg/injection, schedule: Q04DX004 (ip), vehicle: saline) 103 % of control; (dose: 45.0 mg/kg/injection, schedule: Q01DX001 (ip), vehicle: saline) 54 % of control and 95 % of control. In addition, the T/C (dose: 60.0 mg/kg/injection, schedule: Q01DX001 (ip), vehicle: saline) is 23 % of control and 86 % of control.

For the molecule `COc1ccc(N2CSC(=S)N(c3ccc(OC)cc3)C2)cc1`, the T/C reads like this: (dose: 100.0 mg/kg/injection, schedule: Q01DX001 (ip), vehicle: Klucel (hydroxypropylcellulose) (HPC)) 88 % of control; (dose: 200.0 mg/kg/injection, schedule: Q01DX001 (ip), vehicle: Klucel (hydroxypropylcellulose) (HPC)) 88 % of control; (dose: 400.0 mg/kg/injection, schedule: Q01DX001 (ip), vehicle: Klucel (hydroxypropylcellulose) (HPC)) 92 % of control.

For `C/C(=C\Cl)CN1C(=O)c2ccccc2C1=O`, the T/C (dose: 100.0 mg/kg/injection, schedule: Q01DX001 (ip), vehicle: saline) is 93 % of control; the T/C (dose: 200.0 mg/kg/injection, schedule: Q01DX001 (ip), vehicle: saline) was 102 % of control; the T/C (dose: 400.0 mg/kg/injection, schedule: Q01DX001 (ip), vehicle: saline) is 93 % of control.
